Results reported in patent publication US12540120B2, “Herbicidal compounds” (SYNGENTA CROP PROTECTION AG, priority 2019, dated 2026).

Experiments:
Format in all cases: in vivo
[1] = system: Setaria faberi (SETFA); experiment: B5 Pre-Emergence Efficacy—Test 2; set-up: key: 5-point scale: 5=80-100%, 4=60-79%, 3=40-59%, 2=20-39%, 1=0-19% damage; settings: 250 g/ha, evaluated after 13 days
Experimental: (§1) B5 Pre-Emergence Efficacy—Test 2 Seeds of a variety of test species were sown in standard soil in pots: Solanum nigrum (SOLNI), Amaranthus retoflexus (AMARE), Setaria faberi (SETFA), Echinochloa crus-galli (ECHCG), Ipomoea hederacea (IPOHE), Lolium perenne (LOLPE). After cultivation for one day (pre-emergence) under controlled conditions in a glasshouse (at 24/16° C., day/night; 14 hours light; 65% humidity), the plants were sprayed with an aqueous spray solution derived from the formulation of the technical active ingredient in acetone/water (50:50) solution containing 0.5% Tween 20 (polyoxyethelyene sorbitan monolaurate, CAS RN 9005-64-5). Compounds are applied at 250 g/ha. The test plants were then grown in a glasshouse under controlled conditions (at 24/16° C., day/night; 14 hours light; 65% humidity) and watered twice daily. After 13 days, the test is evaluated for the percentage damage caused to the plant. The biological activities are assessed on a five point scale (5=80-100%; 4=60-79%; 3=40-59%; 2=20-39%; 1=0-19%). A blank value in the table is indicative that the compound was not tested on that species.

[2] = system: Echinochloa crus-galli (ECHCG); experiment: B5 Pre-Emergence Efficacy—Test 2; set-up: key: 5-point scale: 5=80-100%, 4=60-79%, 3=40-59%, 2=20-39%, 1=0-19% damage; settings: 250 g/ha, evaluated after 13 days
Experimental: as §1

[3] = system: Ipomoea hederacea (IPOHE); experiment: B5 Pre-Emergence Efficacy—Test 2; set-up: key: 5-point scale: 5=80-100%, 4=60-79%, 3=40-59%, 2=20-39%, 1=0-19% damage; settings: 250 g/ha, evaluated after 13 days
Experimental: as §1

[4] = system: Lolium perenne (LOLPE); experiment: B5 Pre-Emergence Efficacy—Test 2; set-up: key: 5-point scale: 5=80-100%, 4=60-79%, 3=40-59%, 2=20-39%, 1=0-19% damage; settings: 250 g/ha, evaluated after 13 days
Experimental: as §1

[5] = system: Amaranthus retoflexus (AMARE); experiment: B5 Pre-Emergence Efficacy—Test 2; settings: 250 g/ha, evaluated after 13 days
Experimental: as §1

[6] = system: Solanum nigrum (SOLNI); experiment: B5 Pre-Emergence Efficacy—Test 2; settings: 250 g/ha, evaluated after 13 days
Experimental: as §1

[7] = system: Amaranthus retoflexus (AMARE); experiment: B2 Post-Emergence Efficacy—Test 2; settings: post-emergence application, 250 g/ha, evaluated after 13 days (Test 2)
Experimental: (§2) B2 Post-Emergence Efficacy—Test 2 Seeds of a variety of test species are sown in standard soil in pots:—Solanum nigrum (SOLNI), Amaranthus retoflexus (AMARE), Setaria faberi (SETFA), Echinochloa crus-galli (ECHCG), Ipomoea hederacea (IPOHE), Lolium perenne (LOLPE). After 8 days cultivation (post-emergence) under controlled conditions in a glasshouse (at 24/16° C., day/night; 14 hours light; 65% humidity), the plants are sprayed with an aqueous spray solution derived from the formulation of the technical active ingredient in acetone/water (50:50) solution containing 0.5% Tween 20 (polyoxyethylene sorbitan monolaurate, CAS RN 9005-64-5). Compounds are applied at 250 g/ha. The test plants are then grown in a glasshouse under controlled conditions in a glasshouse (at 24/16° C., day/night; 14 hours light; 65% humidity) and watered twice daily. After 13 days, the test is evaluated for the percentage damage caused to the plant. The biological activities are assessed on a five point scale (5=80-100%; 4=60-79%; 3=40-59%; 2=20-39%; 1=0-19%). A blank value in the table is indicative that the compound was not tested on that species.

[8] = system: Setaria faberi (SETFA); experiment: B2 Post-Emergence Efficacy—Test 2; settings: post-emergence application, 250 g/ha, evaluated after 13 days (Test 2)
Experimental: as §2

[9] = system: Solanum nigrum (SOLNI); experiment: B2 Post-Emergence Efficacy—Test 2; settings: post-emergence application, 250 g/ha, evaluated after 13 days (Test 2)
Experimental: as §2

[10] = system: Echinochloa crus-galli (ECHCG); experiment: B2 Post-Emergence Efficacy—Test 2; settings: post-emergence application, 250 g/ha, evaluated after 13 days (Test 2)
Experimental: as §2

[11] = system: Ipomoea hederacea (IPOHE); experiment: B2 Post-Emergence Efficacy—Test 2; settings: post-emergence application, 250 g/ha, evaluated after 13 days (Test 2)
Experimental: as §2

[12] = system: Lolium perenne (LOLPE); experiment: B2 Post-Emergence Efficacy—Test 2; settings: post-emergence application, 250 g/ha, evaluated after 13 days (Test 2)
Experimental: as §2

Compound: Cc1nn(C)c(=O)c(-c2c(F)ccc(Cl)c2CCc2ccc(O)cc2)c1O [Compound A-1.037]
- Control of weed species after pre-emergence application, SETFA (percentage damage, five point scale) [1]: 0
- Control of weed species after pre-emergence application, ECHCG (percentage damage, five point scale) [2]: 2 (2=20-39%)
- Control of weed species after pre-emergence application, IPOHE (percentage damage, five point scale) [3]: 0
- Control of weed species after pre-emergence application, LOLPE (percentage damage, five point scale) [4]: 0
- Control of weed species after pre-emergence application, AMARE (percentage damage, five point scale) [5]: 1 (1=0-19%)
- Control of weed species after pre-emergence application, SOLNI (percentage damage, five point scale) [6]: 2 (2=20-39%)
- percentage damage caused to the plant, five point scale, AMARE [7]: 1 (1=0-19%)
- percentage damage caused to the plant, five point scale, SETFA [8]: 5 (5=80-100%)
- percentage damage caused to the plant, five point scale, SOLNI [9]: 5 (5=80-100%)
- percentage damage caused to the plant, five point scale, ECHCG [10]: 3 (3=40-59%)
- percentage damage caused to the plant, five point scale, IPOHE [11]: 5 (5=80-100%)
- percentage damage caused to the plant, five point scale, LOLPE [12]: 1 (1=0-19%)

Compound: Cc1nn(C)c(=O)c(-c2c(F)ccc(Cl)c2CCc2ccc(NC(=O)OC(C)(C)C)c(F)c2)c1O [Compound A-1.042]
- Control of weed species after pre-emergence application, SETFA (percentage damage, five point scale) [1]: 5 (5=80-100%)
- Control of weed species after pre-emergence application, ECHCG (percentage damage, five point scale) [2]: 2 (2=20-39%)
- Control of weed species after pre-emergence application, IPOHE (percentage damage, five point scale) [3]: 2 (2=20-39%)
- Control of weed species after pre-emergence application, LOLPE (percentage damage, five point scale) [4]: 1 (1=0-19%)
- Control of weed species after pre-emergence application, AMARE (percentage damage, five point scale) [5]: 5 (5=80-100%)
- Control of weed species after pre-emergence application, SOLNI (percentage damage, five point scale) [6]: 5 (5=80-100%)
- percentage damage caused to the plant, five point scale, AMARE [7]: 5 (5=80-100%)
- percentage damage caused to the plant, five point scale, SETFA [8]: 5 (5=80-100%)
- percentage damage caused to the plant, five point scale, SOLNI [9]: 5 (5=80-100%)
- percentage damage caused to the plant, five point scale, ECHCG [10]: 5 (5=80-100%)
- percentage damage caused to the plant, five point scale, IPOHE [11]: 3 (3=40-59%)
- percentage damage caused to the plant, five point scale, LOLPE [12]: 5 (5=80-100%)

Compound: Cc1nn(C)c(=O)c(-c2c(F)ccc(Cl)c2CCc2ccc(-c3cccs3)cc2)c1O [Compound A-1.384]
- Control of weed species after pre-emergence application, SETFA (percentage damage, five point scale) [1]: 0
- Control of weed species after pre-emergence application, ECHCG (percentage damage, five point scale) [2]: 0
- Control of weed species after pre-emergence application, IPOHE (percentage damage, five point scale) [3]: 2 (2=20-39%)
- Control of weed species after pre-emergence application, LOLPE (percentage damage, five point scale) [4]: 0
- Control of weed species after pre-emergence application, AMARE (percentage damage, five point scale) [5]: 2 (2=20-39%)
- Control of weed species after pre-emergence application, SOLNI (percentage damage, five point scale) [6]: 1 (1=0-19%)
- percentage damage caused to the plant, five point scale, AMARE [7]: 5 (5=80-100%)
- percentage damage caused to the plant, five point scale, SETFA [8]: 5 (5=80-100%)
- percentage damage caused to the plant, five point scale, SOLNI [9]: 5 (5=80-100%)
- percentage damage caused to the plant, five point scale, ECHCG [10]: 3 (3=40-59%)
- percentage damage caused to the plant, five point scale, IPOHE [11]: 5 (5=80-100%)
- percentage damage caused to the plant, five point scale, LOLPE [12]: 4 (4=60-79%)

Compound: Cc1nn(C)c(=O)c(-c2c(F)ccc(Cl)c2CCc2ccc(-c3ccccc3)cc2)c1O [Compound A-1.027, 4-[3-chloro-6-fluoro-2-[2-(4-phenylphenyl)ethyl]phenyl]-5-hydroxy-2,6-dimethyl-pyridazin-3-one]
- Control of weed species after pre-emergence application, SETFA (percentage damage, five point scale) [1]: 3 (3=40-59%)
- Control of weed species after pre-emergence application, ECHCG (percentage damage, five point scale) [2]: 1 (1=0-19%)
- Control of weed species after pre-emergence application, IPOHE (percentage damage, five point scale) [3]: 4 (4=60-79%)
- Control of weed species after pre-emergence application, LOLPE (percentage damage, five point scale) [4]: 2 (2=20-39%)
- Control of weed species after pre-emergence application, AMARE (percentage damage, five point scale) [5]: 5 (5=80-100%)
- Control of weed species after pre-emergence application, SOLNI (percentage damage, five point scale) [6]: 4 (4=60-79%)
- percentage damage caused to the plant, five point scale, AMARE [7]: 5 (5=80-100%)
- percentage damage caused to the plant, five point scale, SETFA [8]: 5 (5=80-100%)
- percentage damage caused to the plant, five point scale, SOLNI [9]: 4 (4=60-79%)
- percentage damage caused to the plant, five point scale, ECHCG [10]: 5 (5=80-100%)
- percentage damage caused to the plant, five point scale, IPOHE [11]: 4 (4=60-79%)
- percentage damage caused to the plant, five point scale, LOLPE [12]: 5 (5=80-100%)

Compound: Cc1nc(-c2ccc(CCc3c(Cl)ccc(F)c3-c3c(O)c(C)nn(C)c3=O)cc2)cs1 [Compound A-1.383]
- Control of weed species after pre-emergence application, SETFA (percentage damage, five point scale) [1]: 4 (4=60-79%)
- Control of weed species after pre-emergence application, ECHCG (percentage damage, five point scale) [2]: 4 (4=60-79%)
- Control of weed species after pre-emergence application, IPOHE (percentage damage, five point scale) [3]: 5 (5=80-100%)
- Control of weed species after pre-emergence application, LOLPE (percentage damage, five point scale) [4]: 3 (3=40-59%)
- Control of weed species after pre-emergence application, AMARE (percentage damage, five point scale) [5]: 5 (5=80-100%)
- Control of weed species after pre-emergence application, SOLNI (percentage damage, five point scale) [6]: 5 (5=80-100%)
- percentage damage caused to the plant, five point scale, AMARE [7]: 5 (5=80-100%)
- percentage damage caused to the plant, five point scale, SETFA [8]: 5 (5=80-100%)
- percentage damage caused to the plant, five point scale, SOLNI [9]: 5 (5=80-100%)
- percentage damage caused to the plant, five point scale, ECHCG [10]: 5 (5=80-100%)
- percentage damage caused to the plant, five point scale, IPOHE [11]: 5 (5=80-100%)
- percentage damage caused to the plant, five point scale, LOLPE [12]: 5 (5=80-100%)

Compound: Cc1cc(CCc2c(Cl)ccc(F)c2-c2c(O)c(C)nn(C)c2=O)ccc1N [Compound A-1.031]
- Control of weed species after pre-emergence application, SETFA (percentage damage, five point scale) [1]: 1 (1=0-19%)
- Control of weed species after pre-emergence application, ECHCG (percentage damage, five point scale) [2]: 2 (2=20-39%)
- Control of weed species after pre-emergence application, IPOHE (percentage damage, five point scale) [3]: 1 (1=0-19%)
- Control of weed species after pre-emergence application, LOLPE (percentage damage, five point scale) [4]: 1 (1=0-19%)
- Control of weed species after pre-emergence application, AMARE (percentage damage, five point scale) [5]: 3 (3=40-59%)
- Control of weed species after pre-emergence application, SOLNI (percentage damage, five point scale) [6]: 2 (2=20-39%)
- percentage damage caused to the plant, five point scale, AMARE [7]: 5 (5=80-100%)
- percentage damage caused to the plant, five point scale, SETFA [8]: 4 (4=60-79%)
- percentage damage caused to the plant, five point scale, SOLNI [9]: 5 (5=80-100%)
- percentage damage caused to the plant, five point scale, ECHCG [10]: 4 (4=60-79%)
- percentage damage caused to the plant, five point scale, IPOHE [11]: 4 (4=60-79%)
- percentage damage caused to the plant, five point scale, LOLPE [12]: 4 (4=60-79%)

Compound: Cc1nn(C)c(=O)c(-c2c(F)ccc(Cl)c2/C=C/c2ccccc2C#N)c1OC(=O)C(C)C [Compound A-4.029]
- Control of weed species after pre-emergence application, SETFA (percentage damage, five point scale) [1]: 0
- Control of weed species after pre-emergence application, ECHCG (percentage damage, five point scale) [2]: 0
- Control of weed species after pre-emergence application, IPOHE (percentage damage, five point scale) [3]: 0
- Control of weed species after pre-emergence application, LOLPE (percentage damage, five point scale) [4]: 0
- Control of weed species after pre-emergence application, AMARE (percentage damage, five point scale) [5]: 2 (2=20-39%)
- Control of weed species after pre-emergence application, SOLNI (percentage damage, five point scale) [6]: 4 (4=60-79%)
- percentage damage caused to the plant, five point scale, AMARE [7]: 4 (4=60-79%)
- percentage damage caused to the plant, five point scale, SETFA [8]: 0
- percentage damage caused to the plant, five point scale, SOLNI [9]: 4 (4=60-79%)
- percentage damage caused to the plant, five point scale, ECHCG [10]: 1 (1=0-19%)
- percentage damage caused to the plant, five point scale, IPOHE [11]: 4 (4=60-79%)
- percentage damage caused to the plant, five point scale, LOLPE [12]: 1 (1=0-19%)
